Measurements taken from ChEMBL document CHEMBL1817579, “Activation and inhibition of CTP synthase from Trypanosoma brucei, the causative agent of African sleeping sickness” (Bioorg Med Chem Lett, 2011).
Activity calls are given as the source filed them. The rule behind the calls is not given here.

What was measured:
[1] = system: Escherichia coli; experiment: Activation of Escherichia coli CTPS assessed as Gln-dependent CTP formation at < 0.15 mM by continuous spectrophotometric assay
[2] = system: Escherichia coli; experiment: Inhibition of Escherichia coli CTPS assessed as Gln-dependent CTP formation at > 0.15 mM by continuous spectrophotometric assay
[3] = system: Trypanosoma brucei; experiment: Activation of N-terminal His6-tagged Trypanosoma brucei CTPS assessed as Gln-dependent CTP formation by continuous spectrophotometric assay
[4] = system: Trypanosoma brucei; experiment: Inhibition of N-terminal His6-tagged Trypanosoma brucei CTPS assessed as Gln-dependent CTP formation at by continuous spectrophotometric assay
[5] = Inhibition of N-terminal His6-tagged Trypanosoma brucei CTPS assessed as NH3-dependent CTP formation by continuous spectrophotometric assay
[6] = system: Trypanosoma brucei; experiment: Activation of N-terminal His6-tagged Trypanosoma brucei CTPS assessed as Gln-dependent CTP formation at <0.2 mM by continuous spectrophotometric assay
[7] = system: Trypanosoma brucei; experiment: Inhibition of N-terminal His6-tagged Trypanosoma brucei CTPS assessed as Gln-dependent CTP formation at > 0.2 mM by continuous spectrophotometric assay
[8] = Activity of Escherichia coli CTPS assessed as conversion of UTP to CTP at pH 7.3 by continuous spectrophotometric assay
[9] = Activity of N-terminal His6-tagged Trypanosoma brucei CTPS assessed as conversion of UTP to CTP at pH 7.3 by continuous spectrophotometric assay
[10] = system: Trypanosoma brucei; settings: 5.67 mM
Description: Inhibition of N-terminal His6-tagged Trypanosoma brucei CTPS assessed as conversion of UTP to CTP at 5.67 mM by continuous spectrophotometric assay

[11] = system: Trypanosoma brucei; settings: 494.32 mM
Description: Inhibition of N-terminal His6-tagged Trypanosoma brucei CTPS assessed as conversion of UTP to CTP at 494.32 mM at pH 7.3 by continuous spectrophotometric assay

[12] = system: Escherichia coli
[13] = system: Trypanosoma brucei
Description: Ratio of Kcat to Km for N-terminal His6-tagged Trypanosoma brucei CTPS assessed as conversion of UTP to CTP by continuous spectrophotometric assay

[14] = system: Escherichia coli; remark: listed apart in the source
Description: Ratio of Kcat to Km for Escherichia coli CTPS assessed as conversion of UTP to CTP by continuous spectrophotometric assay

[15] = system: Trypanosoma brucei; remark: listed apart in the source

For `Nc1nc(=O)c2ncn([C@@H]3O[C@H](COP(=O)(O)OP(=O)(O)OP(=O)(O)O)[C@@H](O)C3O)c2[nH]1` (single isomer, unassigned) [GTP], the kcat [1] was 10.6 s⁻¹, the inhibition [2] was “Active” and the KA [3] was 57 µM. For the same compound, the Kact [3] was 0.87 s⁻¹, the inhibition [4] was “Active” and the IC50 [5] was 460 µM. The Ki [5] was 272 µM, the Activity [6] was “Active” and the inhibition [7] was “Active”.

For `N` [AMMONIA SOLUTION, STRONG], the Ki [8] was 1400 µM, the Ki [9] was 5700 µM and the inhibition [10] was “Active”. For the same compound, the inhibition [11] was “Active”, the Ks [12] was 1.1 mM and the kcat [12] was 4.4 s⁻¹. For the same compound, the kcat/Km [13] was 727 M⁻¹ s⁻¹, the kcat/Km [14] was 4 ×10³ /M/s and the Ks [15] was 2.2 mM. For the same compound, the kcat [15] was 1.6 s⁻¹.

In the case of `Cn1c(=O)c2c(ncn2C)n(C)c1=O` [CAFFEINE], the IC50 [5] is reported as 480 µM.

With `Nc1nc2c(ncn2[C@@H]2O[C@H](CO)[C@@H](O)[C@H]2O)c(=O)[nH]1` [GUANOSINE] the IC50 [5] was 380 µM.

`Oc1nc(O)c2nc(O)[nH]c2n1` [URIC ACID] gave an IC50 [5] of 100 µM.
